Reference: patent US20220119354A1, “DIAMINO-SUBSTITUTED PYRIDINES AND PYRIMIDINES AS HERBICIDES” (FMC Corporation, priority 2019, published 2022)

Experiments:
Type in all cases: in vivo
[1] = test system: foxtail, giant (Setaria faberii); test: Test A postemergence, giant foxtail; details: 0 to 100 scale, 0 no effect, 100 complete control
Procedure, shortened: (§1)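 Seeds sown in loam–sand blend received a directed soil spray of test chemical in non-phytotoxic solvent with surfactant (preemergence); postemergence plants at 2–10 cm, one- to two-leaf stage, were sprayed with the same formulation. Injury rated visually versus untreated controls after ~10 d in greenhouse, 0–100 scale.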

[2] = test system: rice (Oryza sativa); test: Test B flooded paddy test, rice; details: Flood, 250 g ai/ha, applied to paddy water, 2-leaf stage, visual evaluation after 13 to 15 d
Procedure, shortened: (§2)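 Each response is a visual 0–100 rating made against untreated controls, where 0 is no effect and 100 is complete control; a dash marks no result. Compound was dosed into 3 cm paddy water over 2-leaf plants, assessed after 13 to 15 d.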

[3] = test system: blackgrass (Alopecurus myosuroides); test: Test A postemergence, blackgrass; details: 0 to 100 scale, 0 no effect, 100 complete control
Procedure, shortened: as §1

[4] = test system: corn (Zea mays); test: Test A postemergence, corn; details: 0 to 100 scale, 0 no effect, 100 complete control
Procedure, shortened: as §1

[5] = test system: ducksalad (Heteranthera limosa); test: Test B flooded paddy test, ducksalad; details: Flood, 250 g ai/ha, applied to paddy water, 2-leaf stage, visual evaluation after 13 to 15 d
Procedure, shortened: as §2

[6] = test system: barnyardgrass (Echinochloa crus-galli); test: Test A postemergence, barnyardgrass; details: 0 to 100 scale, 0 no effect, 100 complete control
Procedure, shortened: as §1

[7] = test system: wheat (Triticum aestivum); test: Test A postemergence, wheat; details: 0 to 100 scale, 0 no effect, 100 complete control
Procedure, shortened: as §1

[8] = test system: ryegrass, Italian (Lolium multiflorum); test: Test A preemergence, Italian ryegrass; details: 0 to 100 scale, 0 is no effect, 100 is complete control
Procedure, shortened: as §1

[9] = test system: barnyardgrass (Echinochloa crus-galli); test: Test A preemergence, barnyardgrass; details: 0 to 100 scale, 0 is no effect, 100 is complete control
Procedure, shortened: as §1

[10] = test system: sedge, umbrella (small-flower umbrella sedge, Cyperus difformis); test: Test B flooded paddy test, umbrella sedge; details: Flood, 250 g ai/ha, applied to paddy water, 2-leaf stage, visual evaluation after 13 to 15 d
Procedure, shortened: as §2

[11] = test system: barnyardgrass (Echinochloa crus-galli); test: Test B flooded paddy test, barnyardgrass; details: Flood, 250 g ai/ha, applied to paddy water, 2-leaf stage, visual evaluation after 13 to 15 d
Procedure, shortened: as §2

[12] = test system: galium (catchweed bedstraw, Galium aparine); test: Test A postemergence, galium; details: 0 to 100 scale, 0 no effect, 100 complete control
Procedure, shortened: as §1

[13] = test system: kochia (Kochia scoparia); test: Test A postemergence, kochia; details: 0 to 100 scale, 0 no effect, 100 complete control
Procedure, shortened: as §1

[14] = test system: ragweed (common ragweed, Ambrosia elatior); test: Test A preemergence, ragweed; details: 0 to 100 scale, 0 is no effect, 100 is complete control
Procedure, shortened: as §1

[15] = test system: ragweed (common ragweed, Ambrosia elatior); test: Test A postemergence, ragweed; details: 0 to 100 scale, 0 no effect, 100 complete control
Procedure, shortened: as §1

[16] = test system: foxtail, giant (Setaria faberii); test: Test A preemergence, giant foxtail; details: 0 to 100 scale, 0 is no effect, 100 is complete control
Procedure, shortened: as §1

[17] = test system: kochia (Kochia scoparia); test: Test A preemergence, kochia; details: 0 to 100 scale, 0 is no effect, 100 is complete control
Procedure, shortened: as §1

[18] = test system: pigweed (Amaranthus retroflexus); test: Test A postemergence, pigweed; details: 0 to 100 scale, 0 no effect, 100 complete control
Procedure, shortened: as §1

[19] = test system: pigweed (Amaranthus retroflexus); test: Test A preemergence, pigweed; details: 0 to 100 scale, 0 is no effect, 100 is complete control
Procedure, shortened: as §1

[20] = test system: ryegrass, Italian (Lolium multiflorum); test: Test A postemergence, Italian ryegrass; details: 0 to 100 scale, 0 no effect, 100 complete control
Procedure, shortened: as §1

| Compound | Plant response rating, Foxtail, Giant ([1]; 125 g ai/ha) | Plant response rating, Foxtail, Giant ([1]; 500 g ai/ha) | Plant response rating, Rice (0 to 100 scale, 0 is no effect, 100 is complete control) [2] | Plant response rating, Blackgrass ([3]; 125 g ai/ha) | Plant response rating, Blackgrass ([3]; 500 g ai/ha) | Plant response rating, Corn ([4]; 125 g ai/ha) | Plant response rating, Corn ([4]; 500 g ai/ha) | Plant response rating, Ducksalad (0 to 100 scale, 0 is no effect, 100 is complete control) [5] | Plant response rating, Barnyardgrass ([6]; 125 g ai/ha) | Plant response rating, Barnyardgrass ([6]; 500 g ai/ha) | Plant response rating, Wheat ([7]; 125 g ai/ha) | Plant response rating, Wheat ([7]; 500 g ai/ha) | Ryegrass, Italian plant response rating ([8]; 125 g ai/ha) | Ryegrass, Italian plant response rating ([8]; 500 g ai/ha) | Barnyardgrass plant response rating ([9]; 125 g ai/ha) | Barnyardgrass plant response rating ([9]; 500 g ai/ha) | Plant response rating, Sedge, Umbrella (0 to 100 scale, 0 is no effect, 100 is complete control) [10] | Plant response rating, Barnyardgrass (0 to 100 scale, 0 is no effect, 100 is complete control) [11] | Plant response rating, Galium ([12]; 125 g ai/ha) | Plant response rating, Galium ([12]; 500 g ai/ha) | other results |
| --- | --- | --- | --- | --- | --- | --- | --- | --- | --- | --- | --- | --- | --- | --- | --- | --- | --- | --- | --- | --- | --- |
| CC(Nc1nc(N)c(C(F)(F)F)c(C(F)(F)F)n1)c1coc2ccccc12 (stereo not drawn) [Compound 87] | 0 | 0 | 0 | 0 | 0 | 0 | 0 | 0 | 0 | 0 | 0 | 0 | 0 | 0 | 0 | 0 | 0 | 0 | 0 | 0 | Plant response rating, Kochia ([13]; 125 g ai/ha): 0; Plant response rating, Kochia ([13]; 500 g ai/ha): 30; Ragweed plant response rating ([14]; 125 g ai/ha): 0; Ragweed plant response rating ([14]; 500 g ai/ha): 0; Plant response rating, Ragweed ([15]; 125 g ai/ha): 0; Plant response rating, Ragweed ([15]; 500 g ai/ha): 20; Foxtail, Giant plant response rating ([16]; 125 g ai/ha): 0; Foxtail, Giant plant response rating ([16]; 500 g ai/ha): 0; Kochia plant response rating ([17]; 125 g ai/ha): 0; Kochia plant response rating ([17]; 500 g ai/ha): 0; Plant response rating, Pigweed ([18]; 125 g ai/ha): 0; Plant response rating, Pigweed ([18]; 500 g ai/ha): 60; Pigweed plant response rating ([19]; 125 g ai/ha): 0; Pigweed plant response rating ([19]; 500 g ai/ha): 10; Plant response rating, Ryegrass, Italian ([20]; 125 g ai/ha): 0; Plant response rating, Ryegrass, Italian ([20]; 500 g ai/ha): 0 |
| Nc1nc(NC(c2cc3ccccc3o2)C2CC2)ncc1C(F)(F)F (stereo not drawn) [Compound 88] | 30 | 90 | 0 | 50 | 50 | 20 | 30 | 65 | 10 | 90 | 0 | 0 | 50 | 100 | 70 | 90 | 95 | 80 | 90 | 90 | Plant response rating, Kochia ([13]; 125 g ai/ha): 90; Plant response rating, Kochia ([13]; 500 g ai/ha): 90; Ragweed plant response rating ([14]; 125 g ai/ha): 80; Ragweed plant response rating ([14]; 500 g ai/ha): 100; Plant response rating, Ragweed ([15]; 125 g ai/ha): 30; Plant response rating, Ragweed ([15]; 500 g ai/ha): 90; Foxtail, Giant plant response rating ([16]; 125 g ai/ha): 90; Foxtail, Giant plant response rating ([16]; 500 g ai/ha): 100; Kochia plant response rating ([17]; 125 g ai/ha): 70; Kochia plant response rating ([17]; 500 g ai/ha): 100; Plant response rating, Pigweed ([18]; 125 g ai/ha): 100; Plant response rating, Pigweed ([18]; 500 g ai/ha): 100; Pigweed plant response rating ([19]; 125 g ai/ha): 100; Pigweed plant response rating ([19]; 500 g ai/ha): 100; Plant response rating, Ryegrass, Italian ([20]; 125 g ai/ha): 50; Plant response rating, Ryegrass, Italian ([20]; 500 g ai/ha): 60 |
| Nc1nc(NC(c2cc3ccccc3o2)C2CC2)ncc1C(F)(F)F (stereo not drawn) [Compound 89] | 0 | 0 | 0 | 0 | 0 | 0 | 0 | 30 | 0 | 0 | 0 | 0 | 0 | 0 | 0 | 0 | 95 | 30 | 0 | 0 | Plant response rating, Kochia ([13]; 125 g ai/ha): 0; Plant response rating, Kochia ([13]; 500 g ai/ha): 0; Ragweed plant response rating ([14]; 125 g ai/ha): 0; Ragweed plant response rating ([14]; 500 g ai/ha): 20; Plant response rating, Ragweed ([15]; 125 g ai/ha): 0; Plant response rating, Ragweed ([15]; 500 g ai/ha): 0; Foxtail, Giant plant response rating ([16]; 125 g ai/ha): 0; Foxtail, Giant plant response rating ([16]; 500 g ai/ha): 0; Kochia plant response rating ([17]; 125 g ai/ha): 0; Kochia plant response rating ([17]; 500 g ai/ha): 0; Plant response rating, Pigweed ([18]; 125 g ai/ha): 0; Plant response rating, Pigweed ([18]; 500 g ai/ha): 0; Pigweed plant response rating ([19]; 125 g ai/ha): 0; Pigweed plant response rating ([19]; 500 g ai/ha): 0; Plant response rating, Ryegrass, Italian ([20]; 125 g ai/ha): 0; Plant response rating, Ryegrass, Italian ([20]; 500 g ai/ha): 0 |
